Assay results: US8198315B2, “Therapeutic substituted cyclic lactams” (Allergan, Inc., priority 2007, dated 2012)

Key:
hIP = hIP (Homo sapiens, UniProt P43119); test: Other receptors functional assay, hIP; assay type: cell-based
Excerpt: (§1) U.S. patent application Ser. No. 11/553,143, filed on Oct. 26, 2006, incorporated by reference herein, describes the methods used to obtain the in vitro data in the table below.

hDP = molecular target: T1, hDP (Homo sapiens, UniProt Q13258); test: Other receptors functional assay, hDP; assay type: cell-based
T1 sequence (Q13258 1-359): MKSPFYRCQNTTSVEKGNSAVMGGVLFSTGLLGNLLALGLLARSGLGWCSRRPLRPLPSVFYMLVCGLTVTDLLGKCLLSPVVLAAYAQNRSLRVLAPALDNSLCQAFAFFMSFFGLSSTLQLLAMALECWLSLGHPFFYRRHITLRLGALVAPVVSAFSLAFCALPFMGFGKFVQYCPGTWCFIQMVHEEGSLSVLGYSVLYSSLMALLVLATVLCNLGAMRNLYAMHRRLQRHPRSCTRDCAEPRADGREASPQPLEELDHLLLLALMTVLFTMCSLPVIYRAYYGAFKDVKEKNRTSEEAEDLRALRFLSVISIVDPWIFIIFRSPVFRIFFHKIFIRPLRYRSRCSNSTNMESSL
Excerpt: as §1

hTP = molecular target: T2, hTP (Homo sapiens, UniProt P21731); test: Other receptors functional assay, hTP; assay type: cell-based
T2 sequence (P21731 1-343): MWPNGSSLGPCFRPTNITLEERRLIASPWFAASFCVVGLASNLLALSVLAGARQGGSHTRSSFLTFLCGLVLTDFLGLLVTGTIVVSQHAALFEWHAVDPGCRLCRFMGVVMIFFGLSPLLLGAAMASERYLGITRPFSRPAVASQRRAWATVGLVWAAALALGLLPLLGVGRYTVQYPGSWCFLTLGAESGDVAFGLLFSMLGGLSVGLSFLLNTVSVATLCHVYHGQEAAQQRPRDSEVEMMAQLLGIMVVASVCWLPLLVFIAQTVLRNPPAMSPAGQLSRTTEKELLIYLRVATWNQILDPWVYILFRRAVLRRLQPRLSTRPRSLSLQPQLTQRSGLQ
Excerpt: as §1

normotensive dogs [1] = test: Ocular surface hyperemia in normotensive dogs; assay type: in vivo, dog; conditions: once daily for 5 days
Method: (§2) U.S. Pat. No. 7,091,231 describes the methods used to carry out the tests reported below.
(§3) 5-[(R)-1-((S)-3-Hydroxyoctyl)-5-oxopyrrolidin-2-ylmethoxymethyl]-thiophene-2-carboxylic isopropyl ester was tested in normotensive dogs at 2 concentrations, dosing once daily for 5 days. At 0.1%, the maximum intraocular pressure (TOP) decrease from baseline was 8 mmHg (47%) at 78 h; the maximum ocular surface hyperemia (OSH) score was 2.25 at 50 h. At 0.01%, the maximum TOP decrease from baseline was 6.1 mmHg (35%) at 78 h; the maximum OSH score was 1.7 at 30 h. This compound was also tested in laser-induced hypertensive monkeys, using one single day dose. At 0.1%, the maximum TOP decrease from baseline was 17 mmHg (48%) at 6 h.

normotensive dogs [2] = test: Intraocular pressure in normotensive dogs; assay type: in vivo, dog; conditions: once daily for 5 days, at 78 h
Method: as §2, §3

[3] = system: laser-induced hypertensive monkeys; test: Intraocular pressure in laser-induced hypertensive monkeys; assay type: in vivo, monkey; conditions: 0.1%, one single day dose, at 6 h
Method: as §2, §3

EP4 [4] = molecular target: T3, EP4 (Homo sapiens, UniProt P35408); test: EP4 binding (Ki)
Excerpt: as §1

hEP3A = molecular target: T4, hEP3A (Homo sapiens, UniProt P43115); test: Other receptors functional assay, hEP3A; assay type: cell-based
T4 sequence (P43115 1-390): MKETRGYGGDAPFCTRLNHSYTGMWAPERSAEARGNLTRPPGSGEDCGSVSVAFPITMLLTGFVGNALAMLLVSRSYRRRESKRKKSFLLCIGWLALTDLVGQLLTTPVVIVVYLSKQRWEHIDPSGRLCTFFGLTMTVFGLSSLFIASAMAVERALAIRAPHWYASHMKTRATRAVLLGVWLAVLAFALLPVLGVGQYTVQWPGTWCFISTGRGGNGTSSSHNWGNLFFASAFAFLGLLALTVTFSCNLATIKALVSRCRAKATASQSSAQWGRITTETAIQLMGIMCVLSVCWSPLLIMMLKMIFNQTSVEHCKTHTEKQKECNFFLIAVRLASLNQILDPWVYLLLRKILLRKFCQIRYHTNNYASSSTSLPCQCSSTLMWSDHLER
Excerpt: as §1

EP4 [5] = molecular target: T3, EP4; test: EP4 flipr assay; assay type: cell-based; conditions: read-out: EP4 data flip EC50
Excerpt: as §1

EP2 [6] = molecular target: T5, EP2 (Homo sapiens, UniProt P43116); test: EP2 binding (Ki)
Excerpt: as §1

EP2 [7] = molecular target: T5, EP2; test: EP2 cAMP assay; assay type: cell-based
Excerpt: as §1

EP2 [8] = molecular target: T5, EP2; test: EP2 flipr assay; assay type: cell-based
Excerpt: as §1

T5 sequence (P43116 whole entry): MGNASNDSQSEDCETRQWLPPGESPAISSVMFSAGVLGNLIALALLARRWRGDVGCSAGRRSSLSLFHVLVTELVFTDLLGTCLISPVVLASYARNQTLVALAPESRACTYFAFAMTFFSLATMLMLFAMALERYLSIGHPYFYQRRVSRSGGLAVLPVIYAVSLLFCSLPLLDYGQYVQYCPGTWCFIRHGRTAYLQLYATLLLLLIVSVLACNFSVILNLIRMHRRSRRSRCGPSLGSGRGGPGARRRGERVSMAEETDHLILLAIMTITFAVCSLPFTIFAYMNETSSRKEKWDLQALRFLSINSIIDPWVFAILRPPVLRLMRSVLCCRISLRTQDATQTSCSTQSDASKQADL
hIP, sequence (P43119 whole entry): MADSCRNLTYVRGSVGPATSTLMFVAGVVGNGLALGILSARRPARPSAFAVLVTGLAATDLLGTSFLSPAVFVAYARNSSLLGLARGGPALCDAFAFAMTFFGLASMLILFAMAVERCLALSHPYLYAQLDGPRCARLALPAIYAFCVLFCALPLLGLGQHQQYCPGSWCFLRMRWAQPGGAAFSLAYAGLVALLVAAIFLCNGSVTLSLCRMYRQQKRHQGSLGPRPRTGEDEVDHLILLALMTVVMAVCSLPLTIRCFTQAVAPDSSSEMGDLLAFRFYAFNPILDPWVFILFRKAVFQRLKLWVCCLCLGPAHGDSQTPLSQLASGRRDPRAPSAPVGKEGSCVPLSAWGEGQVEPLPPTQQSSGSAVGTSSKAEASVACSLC
T3 sequence (P35408 whole entry): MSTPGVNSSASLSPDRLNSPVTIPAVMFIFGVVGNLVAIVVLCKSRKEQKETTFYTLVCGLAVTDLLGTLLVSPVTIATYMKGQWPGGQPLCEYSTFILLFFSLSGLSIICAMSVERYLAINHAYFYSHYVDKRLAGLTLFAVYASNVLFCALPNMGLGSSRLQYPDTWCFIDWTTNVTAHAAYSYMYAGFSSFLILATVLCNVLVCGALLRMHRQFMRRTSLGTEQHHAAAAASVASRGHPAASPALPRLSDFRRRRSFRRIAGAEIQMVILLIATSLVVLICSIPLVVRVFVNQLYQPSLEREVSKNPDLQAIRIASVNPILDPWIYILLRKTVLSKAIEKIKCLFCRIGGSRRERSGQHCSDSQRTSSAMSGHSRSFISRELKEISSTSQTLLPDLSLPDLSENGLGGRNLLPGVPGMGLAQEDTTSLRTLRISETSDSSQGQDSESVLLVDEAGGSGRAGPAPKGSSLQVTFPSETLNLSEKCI

CCCCC[C@H](O)CCN1C(=O)CC[C@@H]1COCc1ccc(C(=O)NCC)s1 [Example 3, 5-[(R)-1-((S)-3-Hydroxy-octyl)-5-oxopyrrolidin-2-ylmethoxymethyl]-thiophene-2-carboxylic acid ethylamide]
EC50 (hIP): > 10000 nM | EC50 (hDP): > 10000 nM | EC50 (hTP): > 10000 nM

CCCCC[C@H](O)CCN1C(=O)CC[C@@H]1COCc1ccc(C(=O)OC(C)C)s1 [Example 5, 5-[(R)-1-((S)-3-Hydroxyoctyl)-5-oxopyrrolidin-2-ylmethoxymethyl]-thiophene-2-carboxylic isopropyl ester]
maximum ocular surface hyperemia (OSH) score (normotensive dogs [1]; 0.01%, at 30 h): 1.7 | maximum ocular surface hyperemia (OSH) score (normotensive dogs [1]; 0.1%, at 50 h): 2.25 | maximum intraocular pressure decrease from baseline (normotensive dogs [2]; 0.01%): 6.1 mmHg | maximum intraocular pressure decrease from baseline (percent) (normotensive dogs [2]; 0.01%): 35% | maximum intraocular pressure decrease from baseline (normotensive dogs [2]; 0.1%): 8 mmHg | maximum intraocular pressure decrease from baseline (percent) (normotensive dogs [2]; 0.1%): 47% | maximum intraocular pressure decrease from baseline [3]: 17 mmHg | maximum intraocular pressure decrease from baseline (percent) [3]: 48%

CCCCC[C@H](O)CCN1C(=O)CC[C@@H]1COCc1ccc(C(=O)O)s1 [Example 1, 5-[(R)-1-((S)-3-Hydroxyoctyl)-5-oxopyrrolidin-2-ylmethoxymethyl]-thiophene-2-carboxylic acid]
Ki (EP4 [4]): 8720 nM | EC50 (hDP): 6.8 nM | EC50 (hEP3A): 2220 nM | EC50 (EP4 [5]): 7850 nM | EC50 (hTP): 4890 nM | Ki (EP2 [6]): 2880 nM | EC50 (EP2 [7]): 19 nM | EC50 (EP2 [8]): 1570 nM

CCCC1(C(O)CCCN2C(=O)CC[C@@H]2COCc2ccc(C(=O)O)s2)CCC1 (mixture of isomers) [Example 4, 5-{(R)-1-[4-Hydroxy-4-(1-propylcyclobutyl)-butyl]-5-oxopyrrolidin-2-ylmethoxymethyl}-thiophene-2-carboxylic acid]
EC50 (hIP): > 10000 nM | EC50 (hDP): 213 nM | EC50 (hEP3A): > 10000 nM | EC50 (hTP): > 10000 nM | Ki (EP2 [6]): 1200 nM | EC50 (EP2 [7]): 20 nM | EC50 (EP2 [8]): > 10000 nM

CCCCC[C@H](O)CCN1C(=O)CC[C@@H]1COCc1ccc(C(=O)NS(C)(=O)=O)s1 [Example 2, N-{5-[(R)-1-((S)-3-Hydroxy-octyl)-5-oxopyrrolidin-2-ylmethoxymethyl]-thiophene-2-carbonyl}-methanesulfonamide]
EC50 (hIP): > 10000 nM | EC50 (hDP): 194 nM | EC50 (hEP3A): 2030 nM | EC50 (hTP): > 10000 nM
